The values that follow come from patent US9827255B2, “Fumagillol derivatives” (Takeda Pharmaceutical Company Limited, priority 2014, dated 2017).

The nature of test [1]: Body weight loss in high-fat diet C57bl/6 mice. It counts as in vivo. The following applies: once daily, 28 days, oral gavage, male C57bl/6 mice on high-fat diet, BW loss relative to pretreatment. The source says:
Ten to twelve weeks old male C57bl/6 mice are obtained from commercial vendors, and placed on high-fat diet (60% kcal fat) for at least 15 weeks. Treatment with MetAP2 inhibitors is initiated when the average body weight reaches approximately 50 g. The MetAP2 inhibitors are formulated in an aqueous solution of 0.5% methyl cellulose and administered through oral gavage. Control animals receive the equivalent volume of aqueous 0.5% methyl cellulose solution without a MetAP2 inhibitor. Body weight (BW) and food intake are recorded daily, and efficacy is calculated individually as a percentage of BW loss relative to the pretreatment values. Depending on the study design, the treatment is continued for 12, 14 or 28 days. In some studies, indirect calorimetry or body composition are determined at the end of the treatment.
TABLE 2 lists body weight loss (BWL) in mice following treatment with some of the compounds shown in the examples. The compounds shown in TABLE 2 were tested in accordance with the BWL protocol described in the specification beginning at page 36, using the dose, dosing regimen (frequency), and treatment duration indicated in table.

A short description of test [2]: Hypoglycemic activity in KKA^y mice. In kind it is in vivo. Conditions: 10 mg/kg once daily oral gavage, 4-week treatment, male KKA^y mice, mean±SD of 8 animals, p < 0.025 vs. control. The procedure:
Six-week-old male KKA^y mice are obtained from commercial vendors and placed on standard chow. Treatment with a MetAP2 inhibitor is initiated after 8-day acclimization. The MetAP2 inhibitor is formulated in an aqueous 0.5% methylcellulose solution, which is administered once daily through oral gavage. Control animals are treated with the equivalent volume of aqueous 0.5% methylcellulose solution without the compound. After 4 weeks, blood is collected from the tail vein of each of the mice. Glycated hemoglobin levels are measured using a Tosoh HLC-723G8 automated glycohemoglobin analyzer, and plasma glucose levels are measured using a Hitachi model 7180 automated glucose analyzer. For evaluation of the hypoglycemic activity of the MetAP2 inhibitor, statistical differences between control- and compound-treated groups are analyzed using a one-tailed Williams test.
TABLE 3 lists glycated hemoglobin (GHb) and plasma glucose (PG) levels in KKA^y mice after a 4-week treatment with the compound shown in Example 1. The study was conducted in accordance with the protocol described in the specification beginning at page 37, using the dose indicated in table. Values are indicated by mean±standard deviation of 8 animals in each group.

For test [3], the target named is T1, MetAP2 (Homo sapiens, UniProt P50579). Briefly: MetAP2 cellular activity: Western blotting of NMet-14-3-3γ in HUVEC cells. It counts as cell-based. More on the design: host or cells: HUVEC. The following applies: 24 hours, ratio of unprocessed N-Met14-3-3γ over β-actin, read-out: MetAP2 Cell pEC50 (converted). The protocol: HUVEC cells (Lonza) are seeded in 96-well tissue culture microplates and cultured for 24 hours prior to addition of test compounds (11 point range of serial dilutions) or DMSO vehicle. After 24 hours, whole cell extracts are prepared by lysing cells in cell extraction buffer (Cell Signaling) containing protease and phosphatase inhibitors (Calbiochem). Insoluble material is removed by centrifugation and samples are diluted and boiled in SDS-PAGE buffer. Proteins are resolved by SDS-PAGE and transferred to PVDF membranes. Membranes are blocked then incubated with the appropriate primary antibodies, NMet-14-3-3γ (Novus) and β-actin (Sigma), followed by incubation with secondary IRDye 680- or 800CW-conjugated antibodies (Li-Cor). Membranes are scanned on the Odyssey (Li-Cor) and signals corresponding to N-Met14-3-3γ and β-actin are quantified using LiCor software. Compound EC50s are obtained by curve-fitting the ratios of unprocessed N-Met14-3-3γ protein signal over β-actin protein signal using XLfit4 Microsoft Excel curve-fitting software and are reported as pEC50, i.e., −log(EC50), where EC50 is the molar concentration at 50% effective (maximal) response.
T1 sequence (P50579 whole entry): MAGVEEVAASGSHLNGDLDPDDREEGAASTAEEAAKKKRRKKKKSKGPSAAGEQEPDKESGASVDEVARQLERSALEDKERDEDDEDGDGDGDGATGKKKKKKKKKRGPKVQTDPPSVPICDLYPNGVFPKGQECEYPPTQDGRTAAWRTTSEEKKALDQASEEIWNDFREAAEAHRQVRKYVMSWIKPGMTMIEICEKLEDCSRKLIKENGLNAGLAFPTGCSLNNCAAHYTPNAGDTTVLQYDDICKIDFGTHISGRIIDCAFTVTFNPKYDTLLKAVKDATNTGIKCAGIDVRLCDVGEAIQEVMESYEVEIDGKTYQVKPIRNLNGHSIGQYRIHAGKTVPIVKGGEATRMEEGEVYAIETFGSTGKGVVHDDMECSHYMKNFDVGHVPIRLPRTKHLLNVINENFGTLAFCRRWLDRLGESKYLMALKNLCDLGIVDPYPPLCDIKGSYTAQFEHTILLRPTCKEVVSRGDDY
TABLE 1 lists MetAP2 inhibition for some of the compounds shown in the examples, where larger pIC50 and pEC50 values represent higher potency. The compounds shown in TABLE 1 were tested in accordance with the enzyme assay (pIC50) described in the specification beginning at page 35, in which the MetAP2 enzyme is complexed with cobalt or manganese ions, and in accordance with the cellular assay (pEC50) described in the specification beginning at page 36.
A general note: In western blotting, separated proteins are transferred to a membrane and probed.

Test [4] concerns the target T1, MetAP2. Briefly: Enzyme assay: inhibition of MetAP2 (Met-AMC substrate, fluorescence). It counts as biochemical. More on the design: made in house; host or cells: Spodoptera frugiperda Sf9 cells (baculovirus, pFastBac). The protocol: DNA encoding the full-length sequence of human MetAP2 enzyme is amplified by PCR and cloned into a pFastBac expression vector (Invitrogen). Recombinant baculovirus incorporating the MetAP2 construct is generated by transposition using the Bac-to-Bac system (Invitrogen). The expression of recombinant protein is carried out by infection of Spodoptera frugiperda Sf9 cells (Invitrogen) in 5 L Wave Bioreactors (Wave Biotech). Recombinant protein is isolated from cellular extracts by binding to an SP Hitrap Fast Flow or SP Sepharose (Sigma) column, and the protein is eluted using a NaCl gradient. Partially purified extracts of MetAP2 are further purified by an AKTA FPLC over a Superdex-200 column (GE). The purity of MetAP2 protein is determined on denaturing SDS-PAGE gel. Purified MetAP2 protein is concentrated to a final concentration of 17 mg/mL or 2.5 mg/mL. The protein is stored at −78° C. in a buffer containing 10 mM HEPES pH 7.4, 150 mM NaCl, and 1 mM CoCl2 or in a buffer containing 20 mM HEPES pH 7.4, 120 mM NaCl, and 5 mM MnCl2.
The inhibition of MetAP2 is determined using a black 384-well-plate format under the following reaction conditions: 50 mM Hepes pH 7.5, 100 mM NaCl, 10 μM MnCl2 or 10 μM CoCl2, 0.005% Brij35®, 1 mM TCEP, 1% DMSO. To initiate the assay, 4 μL of 5 to 50 nM MetAP2 enzyme solution (enzyme final concentration is 2 to 20 nM) is added to each well, followed by the addition of 2 μL of the test compound (2.5-fold serial dilutions for 11 data points for each test compound) in a buffer solution containing 5% DMSO. Next, 4 μL of a substrate solution (2.5×Km of Met-AMC) is added to each well of the plate (final substrate concentration at Km value). The reaction rate is monitored by reading fluorescence at 460 nm with excitation wavelength at 330 nm for 10 to 30 minutes using a fluorescence plate reader. The results for each well are expressed as percent inhibition and calculated using the equation: […]

The mark [5] stands for this setting: MetAP2 enzyme complexed with cobalt ions, read-out: MetAP2 Co pIC50 (converted).

SMILES strings stand for the structures. Read-outs that look alike come from different tables or passages of the source.

Turning to `CO[C@@H]1[C@H](OCCP(=O)(c2ccccc2)c2ccccc2)CC[C@]2(CO2)[C@H]1[C@@]1(C)O[C@@H]1CC=C(C)C` [Example 1, (2-(((3R,4S,5S,6R)-5-methoxy-4-((2R,3R)-2-methyl-3-(3-methylbut-2-en-1-yl)oxiran-2-yl)-1-oxaspiro[2.5]octan-6-yl)oxy)ethyl)diphenylphosphine oxide], the BWL in test [1] (3 mg/kg) is 18%. Also, in test [2] (control 6.8 ± 0.4), the “GHb (glycated hemoglobin)” value is 5.6 ± 0.4 %. The “PG (plasma glucose)” value in test [2] (control 436.6 ± 64.4) is given as 296.5 ± 77.4 mg/dL. Further, the EC50 at MetAP2 [3] is 4.79 nM. Moreover, the IC50 on MetAP2 [4] (setting [5]) is 44.7 nM; on MetAP2 [4] (MetAP2 enzyme complexed with manganese ions, read-out: MetAP2 Mn pIC50 (converted)), 200 nM.
As to `CO[C@@H]1[C@H](OCCP(=O)(c2ccc(C)cc2)c2ccc(C)cc2)CC[C@]2(CO2)[C@H]1[C@@]1(C)O[C@@H]1CC=C(C)C` [Example 2, (2-(((3R,4S,5S,6R)-5-methoxy-4-((2R,3R)-2-methyl-3-(3-methylbut-2-en-1-yl)oxiran-2-yl)-1-oxaspiro[2.5]octan-6-yl)oxy)ethyl)di-p-tolylphosphine oxide], at MetAP2 [3], the EC50 was 6.61 nM.
As for `CO[C@@H]1[C@H](OCCP(=O)(OC)OC)CC[C@]2(CO2)[C@H]1[C@@]1(C)O[C@@H]1CC=C(C)C` [Example 4, dimethyl (2-(((3R,4S,5S,6R)-5-methoxy-4-((2R,3R)-2-methyl-3-(3-methylbut-2-en-1-yl)oxiran-2-yl)-1-oxaspiro[2.5]octan-6-yl)oxy)ethyl)phosphonate], the EC50 at MetAP2 [3] is 3.47 nM.
With `CCOP(=O)(CCO[C@@H]1CC[C@]2(CO2)[C@@H]([C@@]2(C)O[C@@H]2CC=C(C)C)[C@@H]1OC)OCC` [Example 5, diethyl (2-(((3R,4S,5S,6R)-5-methoxy-4-((2R,3R)-2-methyl-3-(3-methylbut-2-en-1-yl)oxiran-2-yl)-1-oxaspiro[2.5]octan-6-yl)oxy)ethyl)phosphonate], the BWL in test [1] (1 mg/kg) is on record as 18%. In addition, on MetAP2 [3], the EC50 was 6.17 nM. The IC50 at MetAP2 [4] (setting [5]) is 97.7 nM.
